Test results: EP4810509A1, “INSECT NEUROPEPTIDES 7” (Solasta Bio Limited, priority 2022, dated 2024)

Experiments:
Format in all cases: in vivo
Myzus persicae aphids = experiment: Leaf dip assay (based on IRAC susceptibility test method 019), mortality assessment; settings: unformulated, mortality assessed at 72, 96 and 120 hours, compared to negative control vehicle and Spirotetramat (Figures 6-8)
Procedure: The assay was carried out based on IRAC susceptibility test method 019 (https://irac-online.org/methods/aphids-adultnymphs/).
Fill a small 4 cm wide 3 cm high dish with a 1% agar treatment solution of the active chemical or control (ensuring 1 cm gap between the agar and the lid) and leave to set. Dip a 2.5 cm leaf disc into 3 ml of treatment solution allowing the treatment to coat the leaf. Leave the disc to dry for 1 hour and place onto the set agar. Place insects (Myzus persicae aphids) onto each of the leaf discs. Each unit is sealed with a close-fitting, ventilated lid. Place the agar dishes in a small plastic tray lined with moist tissue paper and ensure the water trays in the bottom of the incubator are filled with clean water and place within the incubator. An assessment of mortality is made at 72, 96 and 120 hours. Leaf dip assays were performed with SB-P-66, and compared to a negative control vehicle and a current commercial insecticide Spirotetramat. The activity of SB-P-66 is shown in Figures 6 and 7; SB-P-66 has good activity whilst being eco-friendly and targeted to specific pests unlike broad spectrum chemical insecticides such as Spirotetramat.

Bumblebee = experiment: Bee oral toxicity test (adapted from OECD Test No. 247: Bumblebee, Acute Oral Toxicity Test); settings: % survival after 96 hours of application, compared with sucrose or vehicle and with Imidacloprid (Figure 9)
Procedure: Bee oral testing protocol was carried out adapted from OECD Test No. 247: Bumblebee, Acute Oral Toxicity Test. The toxicity of SB-P-66 was compared with a negative control of sucrose or vehicle, and with a current commercial insecticide Imidacloprid.

Aphis fabae = experiment: Field trials, naturally infested plants (PGRO, vining peas); settings: unformulated, acting comparably to commercial insecticides (Figures 10, 13)
Procedure: (§1) A) and 16 days after second application (App.
(§2) Field trials for peptide SB-P-66, unformulated, against various insects were conducted by third-party organisations PGRO and AgriScience.

Aphis gossypii = experiment: Field trials, naturally infested plants (AgriScience, cotton and melon); settings: unformulated, acting comparably to commercial insecticides (Figures 11, 12)
Procedure: as §1, §2

[1] = system: Amrasca biguttula (leaf hopper); experiment: Field trials, naturally infested plants; settings: unformulated; over time; acting comparably to commercial insecticides (Figure 14)
Procedure: as §1, §2

Myzus persicae = experiment: Field trials; settings: unformulated; acting comparably to commercial insecticides
Procedure: as §2

## H-PAFSSWG-NH2 [SB-P-66, [Hy]-PAFSSWG-[NH2]]
Myzus persicae aphids
  activity against Myzus persicae (mortality): good activity
Bumblebee
  bee oral toxicity (% survival): far lower toxicity
Aphis fabae
  efficacy in field trials against Aphis fabae: good efficacy
Aphis gossypii
  efficacy in field trials against Aphis gossypii: good efficacy
[1]
  efficacy in field trials against Amrasca biguttula: good efficacy
Myzus persicae
  efficacy in field trials against Myzus persicae: good efficacy
